Test [1] addresses T1, D-2 receptor (Rattus norvegicus, UniProt P61169).
T1 construct: Striatal tissue was excised, pooled, and homogenized; from tissue; host or cells: rat striatum, washed membrane pellet (male Sprague-Dawley rats, Charles River)
As to the kind of experiment: Competitive inhibition assay, displacement of 3H-spiperone (D-2 receptor binding). On the set-up: species or system rat (male Sprague-Dawley, striatal tissue). The source says:
(§1) Many compounds capable of effecting reproducible physiological changes in neural tissues are believed to operate by binding at one or more receptor sites.
(§2) A methodology for characterization of D-1 and D-2 receptor binding and an interpretation of the data are described by Billard et al., Life Sciences 35, 1885 (1984) in which the binding of the benzazepine (R)-(+)-8-chloro-2,3,4,5-tetrahydro-3-methyl-5-phenyl-1H- 3-benzazepin-7-ol hemimaleate (SCH 23390) to the dopamine D-1 receptor is characterized. A selectivity for D-1 receptor binding as compared to D-2 receptor binding is believed to confer the therapeutic advantage of avoiding troublesome and potentially irreversible neurological side effects associated with D-2 receptor occupancy.
(§3) Tritiated SCH 23390 and tritiated spiperone (a potent D-2 receptor ligand) were obtained as described in the Billard et al. reference supra and serially diluted in 0.05M Tris buffer, pH 7.4, as required. Compounds of this invention were synthesized as disclosed herein and diluted in 0.05M Tris buffer, pH 7.4, as required.
(§4) Male Sprague-Dawley rats (200 to 250 g) from Charles River Breeding Laboratories, Mass. were used to obtain brain tissue. The rats were humanely sacrificed and their brains removed and placed on ice. Striatal tissue was excised, pooled, and homogenized (Brinkman Polytron, 10 sec) in 100 volumes (w/v) of ice cold 50 mM Tris buffer, pH 7.4 (at 25° C.). The homogenate was centrifuged at 20,000 xg for 10 min. The resultant pellet was rehomogenized in Tris buffer and centrifuged again. The final pellet was resuspended in 50 mM Tris buffer pH 7.4 containing 120 mM NaCl, 5 mM KCl, 2 mM CaCl2, and 1 mM MgCl2.
(§5) Polypropylene incubation tubes received 100 μl of the individual test compounds at various concentrations dissolved or suspended in 0.05M Tris, pH 7.4 containing 4 mg/ml methylcellulose, 100 μl of a solution of ^3 H-SCH 23390 in Tris buffer (final reaction mixture concentration=0.3 nM) or 100 μl of a solution of ^3 H-spiperone in Tris buffer (final concentration=0.2 nM) and 800 μl of tissue suspension (ca. 3 mg/assay). Tubes were incubated at 37° C. for 15 minutes and rapidly vacuum filtered through Whatman GF/B filters and rinsed 4 times with 4 ml of ice cold 50 mM Tris buffer, pH 7.4. The filters were transferred to scintillation vials, equilibated with 10 ml of scintillant (Scintosol, Isolab, Inc.) for 16 hours at 25° C. and the radioactivity determined in a liquid scintillation counter. Ki values were determined as described by Billard et al. using the relationship Ki = IC50 /(1+([L]/KD)) wherein IC50 =concentration of test drug necessary to displace 50% of specifically bound ^3 H-Sch 23390, [L]=concentration of radioligand used in the assay, and KD =dissociation constant.
(In general: In a radioligand displacement assay an active substance lowers the binding of a labelled ligand.)

Test [2] can be described thus: Conditioned avoidance suppression (CAR) in rats. To be noted: lowest dose significantly (P≤0.05) reducing avoidance responding, rat, in mg/kg. The format is in vivo. How it is done:
A series of experiments was carried out to assess the ability of the compounds of this invention to suppress the conditioned avoidance response (CAR) in rats.
Rats were required to jump onto a platform located 6.75 inches (17.15 cm) above the grid floor of an experimental chamber in response to a 5-second tone to avoid a 10-second foot shock (0.6 ma). Each experimental session consisted of 20 such trials presented at 30-second intervals. A correct CAR is scored whenever the rat jumps onto the platform during the tone (prior to foot shock). An escape response is scored when the rat jumps onto the platform during a shock. A response failure is defined as the lack of an escape response during the 10-second shock period.
Groups of 6-8 rats were trained in two consecutive days (total of 40 trials). Rats that reached criterion on day 2 (correct CARs on 16 or more of the 20 trials) were treated with either a test drug or vehicle on day 3. Suppression of CAR was analyzed statistically using Student's t-test comparing the performance of rats on day 2 with their performance following drug on day 3.

Test [3] concerns the target T2, dopamine D-1 receptor (Rattus norvegicus, UniProt P18901).
T2 construct: Striatal tissue was excised, pooled, and homogenized; from tissue; host or cells: rat striatum, washed membrane pellet (male Sprague-Dawley rats, Charles River)
As to the kind of experiment: Competitive inhibition assay, displacement of 3H-SCH 23390 (D-1 receptor binding). More on the design: species or system rat (male Sprague-Dawley, striatal tissue).
Description: as §1, §2, §3, §4, §5

The nature of test [4]: Squirrel monkey conditioned avoidance response (CAR) test. It counts as in vivo. To be noted: for MEAN (±SE) NUMBER OF […] 6 HOURS POST-TREATMENT: 10 mg/kg p.o., vehicle 59.1 + 0.9 (N=7); for ability to significantly decrease the number of avoidances six hours after dosing (duration): 10 mg/kg po, six hours prior to testing; for ED50: Primates, po. The source says:
This test was designed to measure the effective duration of candidate compounds.
Male or female squirrel monkeys weighing 800-1200 g housed one per cage were utilized. Initially each monkey was taught to terminate a 3 mA electric shock delivered through the grid floor of the test cage and an overlapping tone by depressing a lever in the cage.
In the second phase of the testing, a ten second tone is turned on prior to the shock component. A lever press during the sounding of the tone terminates the tone and prevents the occurrence of the shock component and is denoted as an "avoidance".
The compound testing was commenced after three consecutive days of re-testing. […] The monkey must achieve at least an 85% correct avoidance before drug testing commences. If this minimal avoidance level is achieved, the next day the monkey is orally dosed or injected with the subject compounds in the appropriate vehicle and the number of avoidances are recorded. An animal is defined as having been "affected" by any drug treatment if there is a 50% loss of avoidance behavior relative to the performance of the animal when only the vehicle was injected. The minimal effective dose (MED) is defined as that dose producing an effect in at least 50% of the animals.
A test was conducted to determine the effective duration of a compound of the present invention, 6,7,7a,8,9,13b-hexahydro-3-chloro-2-hydroxy-7-methyl-5H-benzo[ d]naphtho[2,1-b]azepine, denoted as Compound A, compared to a known compound, (d)-7-chloro-8-hydroxy-3-methyl-1-phenyl-2,3,4,5-tetrahydro-1h-3-benzazepine maleate, denoted as Compound B (Sch 23390)
The duration of each compound was determined by administering a 10 mg/kg po dose six hours prior to testing.

The mark [5] stands for this setting: rat striatum, 3H-spiperone 0.2 nM, pH 7.4, 37° C., 15 min, read-out: Ki, 3H-Spip.
Where [6] appears, read: rat striatum, 3H-SCH 23390 0.3 nM, pH 7.4, 37° C., 15 min, read-out: Ki, 3H-23390.

Each structure is given as a SMILES string. Structures can show the parent of a compound that is named as a salt. Where two headings read alike, the source gives them in different places.

T2 sequence (P18901 whole entry): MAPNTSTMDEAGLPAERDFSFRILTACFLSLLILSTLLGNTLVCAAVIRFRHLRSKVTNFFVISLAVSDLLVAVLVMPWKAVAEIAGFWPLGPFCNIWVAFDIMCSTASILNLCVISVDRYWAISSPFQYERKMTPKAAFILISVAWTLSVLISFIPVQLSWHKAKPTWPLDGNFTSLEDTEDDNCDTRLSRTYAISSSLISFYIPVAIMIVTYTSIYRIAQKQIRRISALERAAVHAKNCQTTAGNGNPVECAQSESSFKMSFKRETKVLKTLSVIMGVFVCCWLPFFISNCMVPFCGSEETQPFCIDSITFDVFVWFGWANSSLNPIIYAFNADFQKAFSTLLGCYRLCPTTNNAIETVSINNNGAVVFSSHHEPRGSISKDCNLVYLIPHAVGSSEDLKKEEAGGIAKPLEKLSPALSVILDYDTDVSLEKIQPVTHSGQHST
T1 sequence (P61169 whole entry): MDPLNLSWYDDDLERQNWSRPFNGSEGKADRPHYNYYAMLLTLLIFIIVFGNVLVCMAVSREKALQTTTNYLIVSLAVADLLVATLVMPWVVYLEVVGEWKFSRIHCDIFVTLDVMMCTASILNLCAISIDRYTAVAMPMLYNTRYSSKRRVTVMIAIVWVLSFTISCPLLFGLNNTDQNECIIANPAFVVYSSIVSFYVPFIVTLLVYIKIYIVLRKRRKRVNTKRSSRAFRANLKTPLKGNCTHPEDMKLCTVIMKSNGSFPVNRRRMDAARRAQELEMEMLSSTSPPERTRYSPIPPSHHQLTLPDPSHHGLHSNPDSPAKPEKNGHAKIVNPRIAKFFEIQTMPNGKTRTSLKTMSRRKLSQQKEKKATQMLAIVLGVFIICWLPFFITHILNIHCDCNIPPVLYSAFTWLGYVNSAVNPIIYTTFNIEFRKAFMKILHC

For orientation: Ki means a dissociation constant, usually derived from enzyme kinetics or from competition with a known ligand. For the molecule `COc1cc2c(cc1O)CCN(C)[C@H]1CCc3ccccc3[C@H]21` (relative stereo) [CH2, 1, trans, HO, CH3O, trans-6,7,7a,8,9,13b-Hexahydro-3-hydroxy-2-methoxy-7-methyl-5H-benzo[d]naphtho[2,1-b]azepine], in test [1], the Ki was over 100000 nM.

With `COc1cc2c(cc1O)[C@H]1c3ccccc3CC[C@@H]1N(C)CC2` (relative stereo) [CH2, 1, trans, CH3O, OH, trans-6,7,7a,8,9,13b-Hexahydro-2-hydroxy-3-methoxy-7-methyl-5H-benzo[d]naphtho[2,1-b]azepine], the Ki was found to be 2500 nM in test [1] and 23 nM in test [3]. In addition, the “CAR (MED)” value in test [2] (po) is recorded as 30; in test [2] (sc), 0.3-1.

Usually ED50 stands for the midpoint of the dose-response relation. For the molecule `CN1CCc2cc(Cl)c(O)cc2[C@@H](c2ccccc2)C1` [Compound B, (d)-7-chloro-8-hydroxy-3-methyl-1-phenyl-2,3,4,5-tetrahydro-1h-3-benzazepine maleate, reference compound], in test [4], the “MEAN (±SE) NUMBER OF […] 6 HOURS POST-TREATMENT” value is 59.7 + 0.3 and the “ability to significantly decrease the number of avoidances six hours after dosing (duration)” value is “inactive”. In test [4] (0.5 h), this molecule showed an ED50 of 2.4 mg/kg.

In the case of `CN1CCc2cc(Cl)c(O)cc2C2c3ccccc3CCC21` (stereo not shown) [Compound A, 6,7,7a,8,9,13b-hexahydro-3-chloro-2-hydroxy-7-methyl-5H-benzo[d]naphtho[2,1-b]azepine], in test [4], the “MEAN (±SE) NUMBER OF […] 6 HOURS POST-TREATMENT” value is 23.9 + 7.5 and the “ability to significantly decrease the number of avoidances six hours after dosing (duration)” value is recorded as “significant decrease in the number of avoidances (≤0.05)”. The ED50 in test [4] (1 h, administered 60 minutes prior to the test, read-out: ED50) is about 1.6 mg/kg.

Turning to `CN1CCc2cc(Cl)c(O)cc2[C@@H]2c3ccccc3C[C@H]21` (relative stereo) [CH2, 0, trans, Cl, OH, trans-5,6,7,7a,8,12b-Hexahydro-2-hydroxy-3-chloro-7-methyl-benz[d]indeno[2,1-b]azepine], the Ki in test [1] (setting [5]) came out at 2600 nM; in test [3], 10 nM.

As for `CN1CCc2cc(Cl)c(O)cc2[C@@H]2c3ccccc3CC[C@H]21` [CH2, 1, 7b(S):7a(R)(+), Cl, OH, (+)-trans-6,7,7a,8,9,13b-hexahydro-3-chloro-2-hydroxy-7-methyl-5H-benzo[d]naphtho[2,1-b]azepine], in test [2] (po), the “CAR (MED)” value was over 30.

On to `COc1cc2c(cc1O)CCN(C)[C@H]1CCCc3ccccc3[C@H]21` (relative stereo) [CH2, 2, trans, HO, CH3O], for which the Ki in test [1] (setting [5]) is over 100000 nM; in test [3] (setting [6]), 7730 nM. Further, in test [2] (sc), the “CAR (MED)” value came out at 10.

As for `CN1CCc2cc(Cl)c(O)cc2[C@H]2c3ccccc3CC[C@@H]21` [CH2, 1, 7b(R):7a(S)(-), Cl, OH, (-)-trans-6,7,7a,8,9,13b-Hexahydro-3-chloro-2-hydroxy-7-methyl-5H-benzo[b]naphtho[2,1-b]azepine], in test [2] (po), the “CAR (MED)” value is 30.

In the case of `CN1CCc2ccc(O)cc2[C@H]2c3ccccc3CC[C@@H]21` (relative stereo) [CH2, 1, trans, H, OH, trans-6,7,7a,8,9,13b-Hexahydro-2-hydroxy-7-methyl-5H-benzo[d]naphtho[2,1-b]azepine], the Ki in test [1] (setting [5]) was determined as 3500 nM; in test [3] it was 80 nM.

In test [1], `COc1cc2c(cc1O)CCN(C)[C@@H]1CCc3ccccc3[C@H]21` (relative stereo) [CH2, 1, cis, HO, CH3O] showed a Ki of over 100000 nM.

For the molecule `COc1cc2c(cc1O)[C@H]1c3ccccc3CC[C@H]1N(C)CC2` (relative stereo) [CH2, 1, cis, CH3O, OH], the Ki in test [1] was over 100000 nM; in test [3] (setting [6]) it was 6450 nM.

For `Cc1cc2c(cc1O)[C@H]1c3ccccc3CC[C@@H]1N(C)CC2` (relative stereo) [CH2, 1, trans, CH3, OH, trans-6,7,7a,8,9,13b-hexahydro-2-hydroxy-3-methyl-7-methyl-5 H-benzo[d]naphtho[2,1-b]azepine], the Ki in test [1] worked out at 7200 nM; in test [3] (setting [6]), 119 nM.

Consider `COc1cc2c(cc1O)[C@H]1c3ccccc3CCC[C@@H]1N(C)CC2` (relative stereo) [CH2, 2, trans, CH3O, OH], for which the Ki in test [1] (setting [5]) was over 100000 nM; in test [3] (setting [6]), 292 nM. Moreover, the “CAR (MED)” value in test [2] (sc) came to 10.

On to `CN1CCc2cc(Cl)c(O)cc2[C@H]2c3ccccc3CC[C@@H]21` (relative stereo) [CH2, 1, trans, Cl, OH, trans-6,7,7a,8,9,13b-Hexahydro-3-chloro-2-hydroxy-7-methyl-5H-benzo[d]naphtho[2,1-b]azepine], for which the entries for the “CAR (MED)” value in test [2] (po) and in test [2] (sc) were 30 and 0.3, respectively.

With `CN1CCc2cc(Cl)c(N)cc2[C@H]2c3ccccc3CC[C@@H]21` (relative stereo) [CH2, 1, trans, Cl, NH2], the Ki in test [1] (setting [5]) is 4170 nM; in test [3], 70 nM. Also, in test [2] (po), the “CAR (MED)” value was determined as 3.

For `CN1CCc2ccc(O)cc2[C@@H]2c3ccccc3OC[C@H]21` (relative stereo) [O, 1, trans, H, OH, trans-6,6a,7,8,9,13b-Hexahydro-7-methyl-[1]benzopyrano[4,3-a][3]benzazepin-12-ol], the Ki in test [3] (setting [6]) came to 121 nM.
